These results are taken from PubChem BioAssay (NCI).

The structures appear in SMILES notation.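 All cell lines were grown in 96-well plates and treated with compound for 48 hours. TGI: total growth inhibition.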

One assay concerns ACHN renal. Description: inhibition of tumour cell growth, NCI panel, 48 h.
Molecule `COc1ccc2c(C)cc(N/N=C(\C)C=O)nc2c1` came in with a TGI of 29.7 µM.

Turning to `O=C(c1cccc2ccccc12)C1(Br)S(=O)(=O)OCCOS1(=O)=O`, the TGI was greater than 100 µM.

In the case of `O=C(/C=C/c1csc(-c2ccccc2)n1)NCc1ccc(C(=O)NCCc2ccccc2)cc1`, the TGI is greater than 100 µM.

For `CC12CCC(CC1=O)C2(C)CCC(N)=O` (configuration not stated), the TGI is greater than 100 µM.

As to `[N-]=[N+]=Nc1c(C=O)c(=O)n2c3c(cccc13)CCC2`, the TGI was found to be 11.5 µM.

Turning to `CC(C)(Br)C(Br)CCC(C)(Br)C(Br)CO` (configuration not stated), the TGI is greater than 10 µM.

Regarding `COc1ccc(/C=C2\C(=O)N(C3OC(COC(C)=O)C(OC(C)=O)C(OC(C)=O)C3OC(C)=O)c3ccccc3N=C2N)cc1` (configuration not stated), the TGI was greater than 100 µM.

In turn, `COC12OC3(C4OC41)C(C(=O)O[C@H]3CO[Si](C)(C)C(C)(C)C)C2C(=O)Oc1ccccc1` (some centres not stated) registered a TGI greater than 100 µM.

As for `COc1ccc(OCc2nc3cc(C(F)(F)F)ccc3nc2-c2ccccc2)cc1`, the TGI was greater than 100 µM.

In turn, `N=c1oc2cc(O)ccc2cc1C(=O)NCc1ccccc1` came in with a TGI greater than 100 µM.

Molecule `COc1cc(/C=C/C(=O)c2ccc(NS(=O)(=O)c3cc([N+](=O)[O-])ccc3C)cc2)cc(OC)c1OC` returned a TGI of 15.9 µM.

Take `O=C(Cc1ccccc1)NNc1nc(NNC(=O)c2ccncc2)nc(Nc2ccc([N+](=O)[O-])cc2)n1`: the TGI was greater than 10 µM.

Consider `NC(=O)N/N=C1\CCCCc2ccccc21`, for which the TGI is greater than 10 µM.

`CSc1ncc2c(C#N)c3sc4ccccc4n3c(=O)c2n1` had a TGI greater than 100 µM.

A further assay has as its system BT-549 breast. Description: inhibition of tumour cell growth, NCI panel, 48 h.
In turn, `COc1ccc2c(C)cc(N/N=C(\C)C=O)nc2c1` yielded a TGI of 29.3 µM.

`O=C(c1cccc2ccccc12)C1(Br)S(=O)(=O)OCCOS1(=O)=O`: the TGI is greater than 100 µM.

`O=C(/C=C/c1csc(-c2ccccc2)n1)NCc1ccc(C(=O)NCCc2ccccc2)cc1` displayed a TGI greater than 100 µM.

On to `CC12CCC(CC1=O)C2(C)CCC(N)=O` (configuration not stated), for which the TGI is greater than 100 µM.

Consider `[N-]=[N+]=Nc1c(C=O)c(=O)n2c3c(cccc13)CCC2`, for which the TGI was determined as 6.07 µM.

The molecule `CC(C)(Br)C(Br)CCC(C)(Br)C(Br)CO` (configuration not stated) showed a TGI greater than 10 µM.

On to `COc1ccc(/C=C2\C(=O)N(C3OC(COC(C)=O)C(OC(C)=O)C(OC(C)=O)C3OC(C)=O)c3ccccc3N=C2N)cc1` (configuration not stated), for which the TGI turned out to be 71.6 µM.

Molecule `COC12OC3(C4OC41)C(C(=O)O[C@H]3CO[Si](C)(C)C(C)(C)C)C2C(=O)Oc1ccccc1` (some centres not stated) displayed a TGI greater than 100 µM.

Turning to `COc1ccc(OCc2nc3cc(C(F)(F)F)ccc3nc2-c2ccccc2)cc1`, the TGI is greater than 100 µM.

As for `N=c1oc2cc(O)ccc2cc1C(=O)NCc1ccccc1`, the TGI is 71.1 µM.

Turning to `COc1cc(/C=C/C(=O)c2ccc(NS(=O)(=O)c3cc([N+](=O)[O-])ccc3C)cc2)cc(OC)c1OC`, the TGI is 14.4 µM.

In the case of `O=C(Cc1ccccc1)NNc1nc(NNC(=O)c2ccncc2)nc(Nc2ccc([N+](=O)[O-])cc2)n1`, the TGI is greater than 10 µM.

Molecule `NC(=O)N/N=C1\CCCCc2ccccc21` showed a TGI greater than 10 µM.

In the case of `CSc1ncc2c(C#N)c3sc4ccccc4n3c(=O)c2n1`, the TGI was greater than 100 µM.

`CCOC(=O)c1ccc(N=C2C(=S)N(c3ccc(C(=O)OCC)cc3)C(=N)N2/N=C/c2ccccc2)cc1`: the TGI is 80.2 µM.

The next assay relates to DU-145 prostate. Description: inhibition of tumour cell growth, NCI panel, 48 h.
The molecule `COc1ccc2c(C)cc(N/N=C(\C)C=O)nc2c1` returned a TGI of 24.7 µM.

With `O=C(c1cccc2ccccc12)C1(Br)S(=O)(=O)OCCOS1(=O)=O`, the TGI is greater than 100 µM.

As for `O=C(/C=C/c1csc(-c2ccccc2)n1)NCc1ccc(C(=O)NCCc2ccccc2)cc1`, the TGI is greater than 100 µM.

`CC12CCC(CC1=O)C2(C)CCC(N)=O` (configuration not stated) yielded a TGI greater than 100 µM.

`[N-]=[N+]=Nc1c(C=O)c(=O)n2c3c(cccc13)CCC2`: the TGI came to 21 µM.

The molecule `CC(C)(Br)C(Br)CCC(C)(Br)C(Br)CO` (configuration not stated) showed a TGI greater than 10 µM.

`COc1ccc(/C=C2\C(=O)N(C3OC(COC(C)=O)C(OC(C)=O)C(OC(C)=O)C3OC(C)=O)c3ccccc3N=C2N)cc1` (configuration not stated) came in with a TGI of 87.6 µM.

`COC12OC3(C4OC41)C(C(=O)O[C@H]3CO[Si](C)(C)C(C)(C)C)C2C(=O)Oc1ccccc1` (some centres not stated) displayed a TGI greater than 100 µM.

As to `COc1ccc(OCc2nc3cc(C(F)(F)F)ccc3nc2-c2ccccc2)cc1`, the TGI is greater than 100 µM.

Turning to `N=c1oc2cc(O)ccc2cc1C(=O)NCc1ccccc1`, the TGI came out at 56.4 µM.

Consider `COc1cc(/C=C/C(=O)c2ccc(NS(=O)(=O)c3cc([N+](=O)[O-])ccc3C)cc2)cc(OC)c1OC`, for which the TGI was 10.2 µM.

`O=C(Cc1ccccc1)NNc1nc(NNC(=O)c2ccncc2)nc(Nc2ccc([N+](=O)[O-])cc2)n1` had a TGI greater than 10 µM.

In the case of `NC(=O)N/N=C1\CCCCc2ccccc21`, the TGI was greater than 10 µM.

Take `CSc1ncc2c(C#N)c3sc4ccccc4n3c(=O)c2n1`: the TGI was greater than 100 µM.

For `CCOC(=O)c1ccc(N=C2C(=S)N(c3ccc(C(=O)OCC)cc3)C(=N)N2/N=C/c2ccccc2)cc1`, the TGI was greater than 100 µM.

The test system of the next assay is HCT-15 colon. Description: inhibition of tumour cell growth, NCI panel, 48 h.
Consider `COc1ccc2c(C)cc(N/N=C(\C)C=O)nc2c1`, for which the TGI is 15.2 µM.

`O=C(c1cccc2ccccc12)C1(Br)S(=O)(=O)OCCOS1(=O)=O`: the TGI was greater than 100 µM.

For the molecule `O=C(/C=C/c1csc(-c2ccccc2)n1)NCc1ccc(C(=O)NCCc2ccccc2)cc1`, the TGI was greater than 100 µM.

As to `CC12CCC(CC1=O)C2(C)CCC(N)=O` (configuration not stated), the TGI was greater than 100 µM.

For `[N-]=[N+]=Nc1c(C=O)c(=O)n2c3c(cccc13)CCC2`, the TGI stood at 11.5 µM.

For the molecule `CC(C)(Br)C(Br)CCC(C)(Br)C(Br)CO` (configuration not stated), the TGI was greater than 10 µM.

Molecule `COc1ccc(/C=C2\C(=O)N(C3OC(COC(C)=O)C(OC(C)=O)C(OC(C)=O)C3OC(C)=O)c3ccccc3N=C2N)cc1` (configuration not stated) returned a TGI greater than 100 µM.

As for `COC12OC3(C4OC41)C(C(=O)O[C@H]3CO[Si](C)(C)C(C)(C)C)C2C(=O)Oc1ccccc1` (some centres not stated), the TGI was greater than 100 µM.

Regarding `COc1ccc(OCc2nc3cc(C(F)(F)F)ccc3nc2-c2ccccc2)cc1`, the TGI is greater than 100 µM.

For the molecule `N=c1oc2cc(O)ccc2cc1C(=O)NCc1ccccc1`, the TGI is greater than 100 µM.

`COc1cc(/C=C/C(=O)c2ccc(NS(=O)(=O)c3cc([N+](=O)[O-])ccc3C)cc2)cc(OC)c1OC` had a TGI of 13.4 µM.

The molecule `O=C(Cc1ccccc1)NNc1nc(NNC(=O)c2ccncc2)nc(Nc2ccc([N+](=O)[O-])cc2)n1` came in with a TGI greater than 10 µM.

As to `NC(=O)N/N=C1\CCCCc2ccccc21`, the TGI is greater than 10 µM.

For the molecule `CSc1ncc2c(C#N)c3sc4ccccc4n3c(=O)c2n1`, the TGI is greater than 100 µM.

`CCOC(=O)c1ccc(N=C2C(=S)N(c3ccc(C(=O)OCC)cc3)C(=N)N2/N=C/c2ccccc2)cc1` gave a TGI greater than 100 µM.

The subject of a further assay is HL-60(TB) leukemia. In words: inhibition of tumour cell growth, NCI panel, 48 h.
`O=C(c1cccc2ccccc12)C1(Br)S(=O)(=O)OCCOS1(=O)=O`: the TGI is greater than 100 µM.

On to `[N-]=[N+]=Nc1c(C=O)c(=O)n2c3c(cccc13)CCC2`, for which the TGI is greater than 100 µM.

`COc1ccc(/C=C2\C(=O)N(C3OC(COC(C)=O)C(OC(C)=O)C(OC(C)=O)C3OC(C)=O)c3ccccc3N=C2N)cc1` (configuration not stated) displayed a TGI of 41.9 µM.

For `COc1ccc(OCc2nc3cc(C(F)(F)F)ccc3nc2-c2ccccc2)cc1`, the TGI is greater than 100 µM.

Regarding `COc1cc(/C=C/C(=O)c2ccc(NS(=O)(=O)c3cc([N+](=O)[O-])ccc3C)cc2)cc(OC)c1OC`, the TGI is 11.1 µM.

Turning to `CSc1ncc2c(C#N)c3sc4ccccc4n3c(=O)c2n1`, the TGI is greater than 100 µM.

The subject of a further assay is HOP-62 NSCLC. Description: inhibition of tumour cell growth, NCI panel, 48 h.
Molecule `COc1ccc2c(C)cc(N/N=C(\C)C=O)nc2c1` displayed a TGI of 27.1 µM.

For `O=C(c1cccc2ccccc12)C1(Br)S(=O)(=O)OCCOS1(=O)=O`, the TGI is greater than 100 µM.
